According to patent US11419876B2, “Mirtazapine as a pre-shipping inhibitor of bovine respiratory disease” (Iowa State University Research Foundation, Inc., priority 2019, dated 2022):

System: BRD
Experiment: Pre-shipment mirtazapine treatment for BRD prevention at the feedlot
Format: in vivo, ranch heifer calves
Procedure: An initial study was performed to confirm BRD prevention at the feedlot using a pre-shipment treatment comprising mirtazapine. A total of 24 ranch heifer calves that were recently weaned (mixed breeds, approximately 350 lbs, 6 months old) were randomly assigned to two different treatment groups. One group was fed mirtazapine in a standard starter feed at 5 mg/kg/day as a pre-shipment treatment. The treatment dosage was extrapolated from feline dosing. After one week, calves were shipped from southern Missouri to Iowa. For the next […], calves were monitored for BRD which was ascribed to any animal showing respiratory signs (i.e. coughing, runny nose or eyes, labored or rapid breathing) plus a rectal temperature >104° F. BRD(+) calves were then treated with florfenicol+flunixin. Calves requiring a second treatment received ceftiofur plus tulathromycin, while the third treatment consisted of enrofloxacin, if needed. At the end of the study calves were sold as seedstock and were kept out of the food chain.
The efficacy of the mirtazapine as a pre-shipment treatment for preventing BRD was assessed by various clinical parameters, as shown in Table 1 and FIG. 1.
The % morbidity equals the % of calves that developed BRD in the first six weeks. The % mortality equals the percent of BRD(+) calves that died of the disease. The % retreats equals the % of BRD(+) calves that required >2 treatments for BRD once developed. The data are compared to Control calves that were not fed mirtazapine prior to shipping to a feedlot (“None”).

[1] = fed in starter feed at 5 mg/kg/day for one week pre-shipment, BRD(+) calves

Q: CN1CCN2c3ncccc3Cc3ccccc3C2C1 (stereo not drawn) [Mirtazapine, 1,2,3,4,10,14b-hexahydro-2-methyl-pyrazino[2,1-a]pyrido[2,3-c] benzazepine] was tested. Which “% Morbidity (% of calves that developed BRD)” value (fed in starter feed at 5 mg/kg/day for one week pre-shipment, % of calves that developed BRD in the first six weeks) did it give?
A: 42%

Q: What about the “% Mortality (percent of BRD(+) calves that died of the disease)” value [1] of the same compound?
A: 0%

Q: And the “% Retreats (% of BRD(+) calves that required >2 treatments for BRD)” value [1]?
A: 11%

Q: What about the “Avg. days to onset BRD” value (fed in starter feed at 5 mg/kg/day for one week pre-shipment, after shipping to feedlot) of the same compound?
A: 7.3 days

Q: And the “Avg. Rectal Temp at BRD” value (fed in starter feed at 5 mg/kg/day for one week pre-shipment, at clinical presentation with BRD)?
A: 104.2 degrees F.

Q: What about the “Effect on morbidity, mortality and severity of BRD (in words)” value (fed to calves for one week prior to shipping, versus control calves not fed mirtazapine) of the same compound?
A: reduces the morbidity, mortality, and severity
